The target of the assay is T1, human TRPV4 (Homo sapiens, UniProt Q9HBA0).
T1 construct: host or cells: tetracycline-inducible Flp-In T-REx 293 cells
The assay can be described thus: Hypotonicity-induced Ca2+ influx (Fluo-4, FDSS). The assay is classed as cell-based. In a few lines:
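Flp-In T-REx 293 cells with tetracycline-induced human TRPV4, loaded with Fluo-4 for 60 min at 25 °C. Compound added 5 min before hypotonic mannitol/CaCl2 solution. Ca2+ signal recorded for 4.5 min on FDSS.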

[1] abbreviates: Flp-In T-REx 293 cells expressing human TRPV4, examples listed under heading 'Human IC50<50 nM'.
[2] abbreviates: Flp-In T-REx 293 cells stably expressing human TRPV4, compounds listed by potency bin (<10 nM Tables 96-1/96-2, <3 nM Table 97).

This note sets out measurements from US12673946B2, “Pyrimidin-4(3H)-one derivatives as TRPV4 antagonists” (RaQualia Pharma Inc., priority 2020, dated 2026).

Usually IC50 stands for the concentration needed to halve the response being measured. A higher IC50 goes with weaker potency.

T1 sequence (Q9HBA0 whole entry): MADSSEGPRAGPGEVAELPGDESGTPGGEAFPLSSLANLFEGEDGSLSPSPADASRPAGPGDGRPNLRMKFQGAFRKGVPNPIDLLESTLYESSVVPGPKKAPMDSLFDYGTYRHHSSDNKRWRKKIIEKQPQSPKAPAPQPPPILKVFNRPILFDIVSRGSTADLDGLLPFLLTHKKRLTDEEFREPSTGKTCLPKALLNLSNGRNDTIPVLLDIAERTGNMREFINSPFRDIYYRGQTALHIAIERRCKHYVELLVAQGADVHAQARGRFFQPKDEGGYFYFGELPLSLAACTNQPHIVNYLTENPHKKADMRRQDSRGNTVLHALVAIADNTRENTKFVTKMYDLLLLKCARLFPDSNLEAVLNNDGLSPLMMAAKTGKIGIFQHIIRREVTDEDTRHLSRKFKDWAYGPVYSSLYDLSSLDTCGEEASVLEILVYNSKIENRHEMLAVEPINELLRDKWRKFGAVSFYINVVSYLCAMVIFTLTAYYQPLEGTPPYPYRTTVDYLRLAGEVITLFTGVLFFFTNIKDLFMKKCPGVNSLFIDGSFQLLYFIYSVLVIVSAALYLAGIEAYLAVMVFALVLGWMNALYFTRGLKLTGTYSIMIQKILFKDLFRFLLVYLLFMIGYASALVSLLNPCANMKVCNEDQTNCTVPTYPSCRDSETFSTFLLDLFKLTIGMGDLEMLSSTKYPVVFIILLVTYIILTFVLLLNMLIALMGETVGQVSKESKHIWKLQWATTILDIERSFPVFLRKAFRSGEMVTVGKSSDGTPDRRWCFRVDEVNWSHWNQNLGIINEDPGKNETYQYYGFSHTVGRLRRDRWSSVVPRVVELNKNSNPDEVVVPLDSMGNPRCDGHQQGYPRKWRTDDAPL

For the molecule `CC(C)c1cncc(C2(c3nc4c(c(=O)[nH]3)CN(C(=O)C(F)(F)c3cccc(Cl)c3F)CCC4)CC2)c1` [22-8], the IC50 reads like this: under setting [1], less than 50 nM; under setting [2], less than 10 nM.
On to `CC(C)c1cncc(C2(c3nc4c(c(=O)[nH]3)CN(C(=O)C(F)(F)c3cccc(C(F)(F)F)c3)CC4)CC2)c1` [22-9], for which the IC50 reads like this: under setting [1], less than 50 nM; under setting [2], less than 10 nM.
As for `CC(C)c1cncc(C2(c3nc4c(c(=O)[nH]3)CN(C(=O)C(F)(F)c3cccc(Cl)c3)CC4)CC2)c1` [22-10], under setting [1], the IC50 is less than 50 nM.
With `O=C([C@H](O)c1cccc(Cl)c1)N1CCc2nc(C3(c4cc(C5CCC(F)(F)CC5)cs4)CC3)[nH]c(=O)c2C1` [23-1, (R)-6-(2-(3-chlorophenyl)-2-hydroxyacetyl)-2-(1-(4-(4,4-difluorocyclohexyl)thiophen-2-yl)cyclopropyl)-5,6,7,8-tetrahydropyrido[4,3-d]pyrimidin-4(3H)-one], the IC50 is, setting by setting: under setting [1], less than 50 nM; under setting [2], less than 10 nM.
In the same order, the values of `O=C([C@H](O)c1cccc(Cl)c1)N1CCc2nc(C3(c4cc(C5CCCC5)cs4)CC3)[nH]c(=O)c2C1` [23-2] are less than 50 nM and less than 10 nM.
In the same order, the values of `O=C([C@H](O)c1cccc(Cl)c1)N1CCc2nc(C3(c4cccc(C5CCCC5)c4)CC3)[nH]c(=O)c2C1` [24-1] are less than 50 nM and less than 10 nM.
In the same order, the values of `O=C([C@H](O)c1cccc(Cl)c1)N1CCc2nc(C3(c4cncc(C5CCCC5)c4)CC3)[nH]c(=O)c2C1` [25-1] are less than 50 nM and less than 3 nM.
`O=C([C@H](O)c1cccc(Cl)c1)N1CCc2nc(C3(c4cncc(C5CCCCC5)c4)CC3)[nH]c(=O)c2C1` [25-2]: the IC50 is less than 50 nM under setting [1] and less than 10 nM under setting [2].
For the molecule `CC(C)c1cncc(C2(c3nc4c(c(=O)[nH]3)CN(C(=O)[C@H](O)c3cccc(Cl)c3)CC4)CC2)c1` [25-3], the half-inhibitory concentration (IC50) by setting is: under setting [1], less than 50 nM; under setting [2], less than 10 nM.
In the same order, the values of `O=C([C@H](O)c1cccc(Cl)c1)N1CCc2nc(C3(c4cncc(C5CCC(F)(F)CC5)c4)CC3)[nH]c(=O)c2C1` [25-4] are less than 50 nM and less than 10 nM.
`O=C([C@H](O)c1cccc(C(F)(F)F)c1)N1CCc2nc(C3(c4cc(C5CCC(F)(F)CC5)cs4)CC3)[nH]c(=O)c2C1` [26-1]: the IC50 was less than 50 nM under setting [1] and less than 10 nM under setting [2].
In turn, `O=C([C@H](O)c1cccc(C(F)(F)F)c1)N1CCc2nc(C3(c4cc(C5CCOCC5)cs4)CC3)[nH]c(=O)c2C1` [26-2] returned an IC50 under setting [1] of less than 50 nM.
`CC(C)c1cccc(C2(c3nc4c(c(=O)[nH]3)CN(C(=O)[C@H](O)c3cccc(C(F)(F)F)c3)CC4)CC2)c1` [27-1] had a half-inhibitory concentration (IC50) under setting [1] of less than 50 nM and an IC50 under setting [2] of less than 10 nM.
As to `O=C([C@H](O)c1cccc(C(F)(F)F)c1)N1CCc2nc(C3(c4cccc(C5CCCC5)c4)CC3)[nH]c(=O)c2C1` [27-2], the IC50 runs as follows: under setting [1], less than 50 nM; under setting [2], less than 10 nM.
For `O=C([C@H](O)c1cccc(C(F)(F)F)c1)N1CCc2nc(C3(c4cccc(C5CCOCC5)c4)CC3)[nH]c(=O)c2C1` [27-3] the same measures were less than 50 nM and less than 10 nM.
With `O=C(Cc1cccc(-c2cccc(C(F)(F)F)c2)c1)N1CCc2nc(C3(c4cccc(C5CCCCC5)c4)CC3)[nH]c(=O)c2C1` [27-4], the IC50 is, setting by setting: under setting [1], less than 50 nM; under setting [2], less than 10 nM.
In turn, `CC(C)c1cccc(C2(c3nc4c(c(=O)[nH]3)CN(C(=O)Cc3cccc(-c5cccc(Cl)c5)c3)CC4)CC2)c1` [27-5] came in with an IC50 under setting [1] of less than 50 nM.
Regarding `CC(C)c1cccc(C2(c3nc4c(c(=O)[nH]3)CN(C(=O)Cc3cccc(-c5cccc(C(F)(F)F)c5)c3)CC4)CC2)c1` [27-6], the IC50 reads like this: under setting [1], less than 50 nM; under setting [2], less than 10 nM.
On to `O=C(Cc1cccc(-c2cccc(Cl)c2)c1)N1CCc2nc(C3(c4cccc(C5CCCCC5)c4)CC3)[nH]c(=O)c2C1` [27-7], for which the IC50 by setting is: under setting [1], less than 50 nM; under setting [2], less than 10 nM.
In the same order, the values of `O=C([C@H](O)c1cccc(C(F)(F)F)c1)N1CCc2nc(C3(c4cncc(C5CCCC5)c4)CC3)[nH]c(=O)c2C1` [28-1] are less than 50 nM and less than 3 nM.
In the same order, the values of `O=C([C@H](O)c1cccc(C(F)(F)F)c1)N1CCc2nc(C3(c4cncc(C5CCCCC5)c4)CC3)[nH]c(=O)c2C1` [28-2] are less than 50 nM and less than 10 nM.
With `CC(C)c1cncc(C2(c3nc4c(c(=O)[nH]3)CN(C(=O)[C@H](O)c3cccc(C(F)(F)F)c3)CC4)CC2)c1` [28-3], the IC50 is, setting by setting: under setting [1], less than 50 nM; under setting [2], less than 10 nM.
With `O=C([C@H](O)c1cccc(C(F)(F)F)c1)N1CCc2nc(C3(c4cncc(C5CCC(F)(F)CC5)c4)CC3)[nH]c(=O)c2C1` [28-4], the IC50 was less than 50 nM under setting [1] and less than 10 nM under setting [2].
For `O=C([C@H](O)c1cccc(C(F)(F)F)c1)N1CCc2nc(C3(c4cncc(C5CCOCC5)c4)CC3)[nH]c(=O)c2C1` [28-5], under setting [1], the IC50 was less than 50 nM.
On to `CC(C)c1cccc(C2(c3nc4c(c(=O)[nH]3)CN(C(=O)[C@H](O)c3cccc(Cl)c3)CCC4)CC2)c1` [29-1], for which the IC50 under setting [1] was less than 50 nM and the IC50 under setting [2] was less than 10 nM.
Turning to `O=C([C@H](O)c1cccc(Cl)c1)N1CCCc2nc(C3(c4cccc(C5CCCCC5)c4)CC3)[nH]c(=O)c2C1` [29-2, (R)-6-(2-(3-chlorophenyl)-2-hydroxyacetyl)-2-(1-(3-cyclohexylphenyl)cyclopropyl)-3,5,6,7,8,9-hexahydro-4H-pyrimido[5,4-c]azepin-4-one], the IC50 was less than 50 nM under setting [1] and less than 3 nM under setting [2].
For `O=C([C@H](O)c1cccc(Cl)c1)N1CCCc2nc(C3(c4cccc(C5CCCC5)c4)CC3)[nH]c(=O)c2C1` [29-3] the same measures were less than 50 nM and less than 3 nM.
Take `O=C([C@H](O)c1cccc(Cl)c1)N1CCCc2nc(C3(c4cccc(C5CCC(F)(F)CC5)c4)CC3)[nH]c(=O)c2C1` [29-4]: the IC50 reads like this: under setting [1], less than 50 nM; under setting [2], less than 3 nM.
In the same order, the values of `O=C([C@H](O)c1cccc(C(F)(F)F)c1)N1CCCc2nc(C3(c4cc(C5CCCC5)cs4)CC3)[nH]c(=O)c2C1` [30-1] are less than 50 nM and less than 3 nM.
For the molecule `CCc1csc(C2(c3nc4c(c(=O)[nH]3)CN(C(=O)[C@H](O)c3cccc(C(F)(F)F)c3)CCC4)CC2)c1` [30-2], the IC50 was less than 50 nM under setting [1] and less than 3 nM under setting [2].
For `O=C([C@H](O)c1cccc(C(F)(F)F)c1)N1CCCc2nc(C3(c4cc(C5CCC(F)(F)CC5)cs4)CC3)[nH]c(=O)c2C1` [30-3] the same measures were less than 50 nM and less than 3 nM.
For `CC(C)(C)CCc1csc(C2(c3nc4c(c(=O)[nH]3)CN(C(=O)[C@H](O)c3cccc(C(F)(F)F)c3)CCC4)CC2)c1` [30-4] the same measures were less than 50 nM and less than 10 nM.
Regarding `O=C([C@H](O)c1cccc(C(F)(F)F)c1)N1CCCc2nc(C3(c4cc(CCC56CC7CC(CC(C7)C5)C6)cs4)CC3)[nH]c(=O)c2C1` [30-5], the half-maximal inhibitory concentration (IC50) is, setting by setting: under setting [1], less than 50 nM; under setting [2], less than 10 nM.
In the same order, the values of `O=C([C@H](O)c1cccc(C(F)(F)F)c1)N1CCCc2nc(C3(c4cc(CCC5CCOCC5)cs4)CC3)[nH]c(=O)c2C1` [30-6] are less than 50 nM and less than 10 nM.
`O=C([C@H](O)c1cccc(C(F)(F)F)c1)N1CCCc2nc(C3(c4cc(C5CCOCC5)cs4)CC3)[nH]c(=O)c2C1` [30-7] returned an IC50 under setting [1] of less than 50 nM and an IC50 under setting [2] of less than 10 nM.
In the same order, the values of `O=C([C@H](O)c1cccc(C(F)(F)F)c1)N1CCCc2nc(C3(c4cc(CCC5CC5)cs4)CC3)[nH]c(=O)c2C1` [30-8] are less than 50 nM and less than 10 nM.
For `O=C([C@H](O)c1cccc(C(F)(F)F)c1)N1CCCc2nc(C3(c4cc(CCc5ccccc5)cs4)CC3)[nH]c(=O)c2C1` [30-9] the same measures were less than 50 nM and less than 10 nM.
`COCCCc1csc(C2(c3nc4c(c(=O)[nH]3)CN(C(=O)[C@H](O)c3cccc(C(F)(F)F)c3)CCC4)CC2)c1` [30-10]: the IC50 under setting [1] is less than 50 nM and the IC50 under setting [2] is less than 10 nM.
On to `O=C([C@H](O)c1cccc(C(F)(F)F)c1)N1CCCc2nc(C3(c4cc(CCC5COC5)cs4)CC3)[nH]c(=O)c2C1` [30-11], for which the IC50 under setting [1] was less than 50 nM and the IC50 under setting [2] was less than 10 nM.
For the molecule `CC(C)(O)CCc1csc(C2(c3nc4c(c(=O)[nH]3)CN(C(=O)[C@H](O)c3cccc(C(F)(F)F)c3)CCC4)CC2)c1` [30-12], the IC50 under setting [1] was less than 50 nM.
Still for that read-out and setting: as for `CC(=O)N1CCC(c2csc(C3(c4nc5c(c(=O)[nH]4)CN(C(=O)[C@H](O)c4cccc(C(F)(F)F)c4)CCC5)CC3)c2)CC1` [30-13], the figure is less than 50 nM.
As to `O=C([C@H](O)c1cccc(C(F)(F)F)c1)N1CCCc2nc(C3(c4cc(CCC5(O)CCCCC5)cs4)CC3)[nH]c(=O)c2C1` [30-14], the IC50 by setting is: under setting [1], less than 50 nM; under setting [2], less than 10 nM.
Take `O=C([C@H](O)c1cccc(C(F)(F)F)c1)N1CCCc2nc(C3(c4cccc(C5CCN(CC(F)(F)F)CC5)c4)CC3)[nH]c(=O)c2C1` [31-1]: the IC50 is, setting by setting: under setting [1], less than 50 nM; under setting [2], less than 3 nM.
For `O=C([C@H](O)c1cccc(C(F)(F)F)c1)N1CCCc2nc(C3(c4cccc(C5CCC(F)(F)CC5)c4)CC3)[nH]c(=O)c2C1` [31-2] the same measures were less than 50 nM and less than 3 nM.
As to `CC1(C)CCC(c2cccc(C3(c4nc5c(c(=O)[nH]4)CN(C(=O)[C@H](O)c4cccc(C(F)(F)F)c4)CCC5)CC3)c2)CC1` [31-3], the IC50 under setting [1] is less than 50 nM and the IC50 under setting [2] was less than 3 nM.
In the same order, the values of `CC(c1cccc(C2(c3nc4c(c(=O)[nH]3)CN(C(=O)[C@H](O)c3cccc(C(F)(F)F)c3)CCC4)CC2)c1)C(F)(F)F` (stereo partly shown) [31-4] are less than 50 nM and less than 3 nM.
For `O=C([C@H](O)c1cccc(C(F)(F)F)c1)N1CCCc2nc(C3(c4cccc(C5CCCC5)c4)CC3)[nH]c(=O)c2C1` [31-5] the same measures were less than 50 nM and less than 3 nM.
